{
  "source": "patent US9884040B2",
  "about": "“Desethylamiodarone for use in cancer treatment” (PÉCSI TUDOMÁNYEGYETEM, priority 2015, dated 2018)",
  "key": {"[1]": {"system": "mitochondrial permeability transition", "settings": "applicants' previous published results; cited from earlier work"}, "[2]": {"system": "B16F10 melanoma lung metastasis", "test": "Mouse model of B16F10 lung metastasis", "assay_type": "in vivo, C57BL/6 mice", "experimental": "To produce experimental metastasis model, male C57BL/6 mice (6 weeks old) were used. B16F10 cells ([…]/0.1 ml) were injected into the lateral tail vein of C57BL/6 mice, using a 30G1/2 needle and a 1-mL syringe. Mice were randomly divided into 3 groups of 6 mice each. Each mouse was given a daily intragastric injection of either 100 μl 15% ethanol solution as the vehicle control or 25 mg/kg DEA. Treatment was started 1 day before cell injection and was given every third day, lasted for consecutive 16 days Sixteen days after injection, the animals were weighed and killed. The lungs were removed, rinsed in PBS, and weighed. The lung weight index was calculated as the ratio of lung weight vs body weight. The harvested lungs were fixed in 4% formalin. Tumor foci on the surfaces of the lungs were counted under a stereomicroscope. Then, the whole lung was embedded in optimum cutting temperature compound (Sakura Finetek, SA), sectioned ([…], 5 levels), and stained with hematoxylin and eosin (H&E) according to routine protocols. […] The percentage of total area of the stained sections occupied by tumor was measured using the Panoramic viewer 1.15.4 (3[…], Hungary) Murine melanoma B16F10 cells were injected into the lateral tail vein of 6-weeks-old male C57BL/6 mice and divided into two groups (6 mice/group). […] Lungs were photographed (FIG. 9 A,B), weighted and lung weight index was calculated as the ratio of lung weight versus body weight of host mice, and was compared between the two groups. […] Metastatic nodules on lung surface were counted. […] 24 h after injection of melanoma B16F10 cells, mice in the control group were treated with vehicle (alcohol), mice in the treatment group were injected with desethylamiodarone (25 mg/kg, i.p., every 3rd day.) After 16 day's mice were sacrificed and then analyzed. […] Lung weight was determined and lung weight index was calculated (C). Tumor growth was monitored also by counting the tumor nodules (D). […] Lung tissue sections were analyzed histopathological after H & E staining. […]"}, "[3]": {"system": "HeLa human cervix adenocarcinoma cell line", "test": "Colony formation assay, HeLa", "assay_type": "cell-based", "settings": "one week; 1, 1.5, 2, 2.5 or 3 μM", "experimental": "Cells were trypsinized and plated in triplicate into 6-well plates at 500 cells/well. Cells were treated with different concentration of Dea. After 7 days of incubation, cells were washed and stained with Coomassie-blue, and the colonies containing more than 50 cells were counted. The number of colonies were determined and normalized to the number of colonies in controls. To assess the recovery ability of cells that survived treatment, long-term (7 days) colony formation assay was performed. […] HeLa cells were incubated with the indicated concentrations of desethylamiodarone (1, 1.5, 2, 2.5 or 3 μM for one week and cell colonies were fixed, stained and counted. (A-B) Data are expressed as the mean±SD of ≧3 experiments; a p<0.01 is considered statistically significant The data shown on FIG. 8 provide evidence that DEA can be useful to cervix carcinoma."}, "[4]": {"settings": "25 mg/kg i.p. every 3rd day, day 16, B16F10 tail vein injection"}},
  "data": [
    {"smiles": "CCCCc1oc2ccccc2c1C(=O)c1cc(I)c(OCCNCC)c(I)c1", "note": "[DEA, (2-butyl-3-benzofuranyl)[4-[2-(ethylamino)ethoxy]-3,5-diiodophenyl]-methanone]", "values": [
      {"measurement": "Mitochondrial permeability transition", "setting": "[1]", "result": "caused mitochondrial permeability transition"},
      {"measurement": "Lung weight index (lung weight versus body weight)", "setting": "[2]; [4]", "result": "significantly *P<0.001 inhibited lung weight increase"},
      {"measurement": "Number of tumor nodules on lung surface", "setting": "[2]; [4]", "result": "dramatically decrease in the number of tumor nodules"},
      {"measurement": "Percentage of tumor area over lung section area (H&E)", "setting": "[2]; 25 mg/kg/3 days, n=6 per group", "result": "significantly decreased"},
      {"measurement": "Colony formation, HeLa", "setting": "[3]", "result": "significant decrease in the number and the size of colonies"}
    ]}
  ]
}
